Measured values from patent publication US8389231B2, “Assays, method and compositions that exploit a mycobacterial iron acquistion pathway in cells” (The Trustees of Princeton University, priority 2005, dated 2013).

Assays:
[1] = tested on: macrophages (THP-1 cell line); assay: MJ-mediated iron acquisition: conversion of MJ to Fe-MJ in macrophage culture, HPLC analysis; format: cell-based, human; conditions: for effect on basal recovery of Fe-MJ: 10 μM metal transferrin added to macrophages with MJ; for stimulation of MJ-mediated iron acquisition from macrophages (conversion of MJ to Fe-MJ): 10 μM transferrin species added to macrophages with MJ, 37° C.
Method: Cell cultures. The THP-1 cell line (a macrophage-like monocyte) was purchased from American Type Culture Collection (ATCC) and used for all protocols. The cells were cultured into PRMI1640 (ATCC) supplemented with 10% fetal bovine serum (ATCC), 2 mM L-glutamine and 0.02 mM penicillin-streptomycin, and maintained at a cell concentration between 2×10^5 and 1×10^6 cells/ml at 37° C. in a 5% CO2 air atmosphere by addition of fresh growth medium (as described above) twice per week. Either PRMI1640 or phenol-red-free PRMI1640 was used with the supply of 2 mM L-glutamine and 0.02 mM penicillin-streptomycin, but in the absence of 10% FBS, for the experiments with MJ.
HPLC analysis for Fe-MJ and MJ. Varian ProStar & PrepStar HPLC and a Waters Delta Pak 5μ C18-300 Åcolumn were used with 3:7 H2O:CH3CN as eluting solution under all conditions. The intensities of the peak with retention time 43 min at 460 nm were integrated and normalized to the amount of Fe-MJ. Macrophages (final concentration, 1×10^5 cells/ml) or 0.05 mM DMPC vesicles as controls were preincubated in RPMI 1640 medium at 37° C. for 4 h, followed by the addition of MJ (final concentration, 1.5 μM). The media were incubated for 24 h at various conditions, such as in the presence or absence of hTf, at varied temperatures or in the presence of different concentrations of desferrioxamine mesylate salt. Three aliquots (3×4 ml) of the medium were collected and lysed by dunces. Lipophilic components were extracted into 3.5 ml CHCl3 and the mixture was centrifuged at 2500 r.p.m for 8 min. The organic layer extraction 2.5 ml was subject to a stream of argon to vaporize CHCl3. The dried mixture was dissolved into 400 μl CH3CN, of which 200 μl solutions was injected into HPLC. The peak intensity of 100% conversion to Fe-MJ was obtained by incubating 1.5 μM Fe-MJ into the medium, following the same workup above.

macrophage cells = assay: Cell-aqueous-phase distributions of MJ and Fe-MJ; format: in vitro ADME, human
Method: Cell-aqueous-phase distributions of MJ and Fe-MJ. After the conversion from MJ to Fe-MJ, aqueous-phase Fe-MJ was obtained by separating the supernatant medium from macrophage cells via the centrifugation with 1500 r.p.m for 5 min. The aliquot of recovered supernatant was subject to CHCl3 extract and HPLC analysis as described above. For measurements of the cell/aqueous-phase partition coefficient of Fe-MJ, Fe-MJ 1.0 μM was incubated into RPMI 1640 medium at 37° C. for half an hour in the presence of various concentrations of macrophage cells. Then the supernatant was separated and analyzed as described above. For the partition coefficient of MJ, prior to the HPLC analysis, a 10-fold ferric citrate excess was added into a MJ-CH3CN solution, followed by a two-hr incubation for the complete conversion from MJ to Fe-MJ. Aqueous-phase and total MJ and Fe-MJ, Ctotal and Cw, respectively, were used to calculate Cv/Cw according to the relationship: Cv/Cw=(Ctotal−Cw)/Cw. The partition coefficient, K was defined according to the following equation: Cv/Cw=K×[Cell], in which [Cell] is the concentration of macrophage cells (cells/ml) and Cv is the amount of lipid-phase MJ or Fe-MJ.

[2] = Lipid-aqueous-phase partition coefficient using lipid vesicles as model membrane; format: physicochemical

For “Al(III) transferrin: Al(III) transferrin complex prepared from apo transferrin, Al(NO3)3 and nitrilotriacetic acid”, the “effect on basal recovery of Fe-MJ” value [1] was “greatly suppressed” and the “stimulation of MJ-mediated iron acquisition from macrophages (conversion of MJ to Fe-MJ)” value (shortened to “stimulation”) [1] was “failed to stimulate”.

In the case of Co-Tf: Cobalt(III) transferrin, the “stimulation” value [1] is reported as “more effective agonist than hTf”.

For “Ga(III) transferrin: Ga(III) transferrin complex prepared from apo transferrin”, the “effect on basal recovery of Fe-MJ” value [1] was “greatly suppressed” and the “stimulation” value [1] was “failed to stimulate”.

With ferric mycobactin J [Fe-MJ] the “Fe-MJ from the aqueous phase as share of total recovered Fe-MJ” value (macrophage cells; after 24-hr incubation of MJ in macrophage culture (1×10^5 cells/ml), presence or absence of hTf) was 80%, the “cell-aqueous-phase partition coefficient K (Cv/Cw=K×[Cell])” value (macrophage cells; macrophage cells, RPMI 1640, 37° C.) was 9.8×10^−7 ml/cell and the “lipid-aqueous-phase partition coefficient Kx” value [2] was 3×10^5.

In the case of “hTf: fully saturated holo-transferrin (human transferrin), obtained from Sigma”, the “hTf-triggered conversion at low temperatures” value ([1]; 10 μM hTf, low temperatures (4° C. level similar to absence of hTf)) is reported as “significantly suppressed” and the “stimulation” value [1] is reported as “nearly doubled”.
